Laboratory results: the NIST ThermoML archive (doi:10.1021/je700261b)

Assay: xn = mol fraction of the nth substance listed
Conditions: Liquid

CCCCO [butan-1-ol] + O=C=O
Conditions | mass density [kg/m3]
333.08 K, 16957 kPa, x2 = 0.1842 | 803.2
333.08 K, 18103 kPa, x2 = 0.1842 | 804.27
333.08 K, 19053 kPa, x2 = 0.1842 | 805.14
333.08 K, 20044 kPa, x2 = 0.1842 | 806.03
333.08 K, 21090 kPa, x2 = 0.1842 | 807.01
333.08 K, 21974 kPa, x2 = 0.1842 | 807.82
333.08 K, 22960 kPa, x2 = 0.1842 | 808.7
333.08 K, 24014 kPa, x2 = 0.1842 | 809.64
333.08 K, 25045 kPa, x2 = 0.1842 | 810.58
342.85 K, 1014 kPa, x2 = 0.0251 | 772.92
342.85 K, 2013 kPa, x2 = 0.0251 | 773.93
342.85 K, 2982 kPa, x2 = 0.0251 | 774.9
342.85 K, 4039 kPa, x2 = 0.0251 | 775.94
342.85 K, 5057 kPa, x2 = 0.0251 | 776.91
342.85 K, 5993 kPa, x2 = 0.0251 | 777.79
342.85 K, 7067 kPa, x2 = 0.0251 | 778.78
342.85 K, 8025 kPa, x2 = 0.0251 | 779.69
342.85 K, 9013 kPa, x2 = 0.0251 | 780.6
342.85 K, 10012 kPa, x2 = 0.0251 | 781.51
342.85 K, 11010 kPa, x2 = 0.0251 | 782.43
342.85 K, 11969 kPa, x2 = 0.0251 | 783.27
342.85 K, 13080 kPa, x2 = 0.0251 | 784.23
342.85 K, 13925 kPa, x2 = 0.0251 | 784.95
342.85 K, 15055 kPa, x2 = 0.0251 | 785.93
342.85 K, 16002 kPa, x2 = 0.0251 | 786.72
342.85 K, 17016 kPa, x2 = 0.0251 | 787.57
342.85 K, 18007 kPa, x2 = 0.0251 | 788.39
342.85 K, 19019 kPa, x2 = 0.0251 | 789.22
342.85 K, 20027 kPa, x2 = 0.0251 | 790.06
342.85 K, 20996 kPa, x2 = 0.0251 | 790.82
342.85 K, 22019 kPa, x2 = 0.0251 | 791.65
342.85 K, 23034 kPa, x2 = 0.0251 | 792.46
342.85 K, 24052 kPa, x2 = 0.0251 | 793.28
342.85 K, 25090 kPa, x2 = 0.0251 | 794.07
342.87 K, 15510 kPa, x2 = 0.9698 | 598.32
342.87 K, 16022 kPa, x2 = 0.9698 | 613.97
342.87 K, 17033 kPa, x2 = 0.9698 | 640.58
342.87 K, 17988 kPa, x2 = 0.9698 | 661.78
342.87 K, 19001 kPa, x2 = 0.9698 | 681.25
342.87 K, 20036 kPa, x2 = 0.9698 | 698.56
342.87 K, 21044 kPa, x2 = 0.9698 | 713.53
342.87 K, 22014 kPa, x2 = 0.9698 | 726.53
342.87 K, 23003 kPa, x2 = 0.9698 | 738.6
342.87 K, 24019 kPa, x2 = 0.9698 | 749.89
342.87 K, 24944 kPa, x2 = 0.9698 | 759.52
342.88 K, 1975 kPa, x2 = 0.0857 | 776.2
342.88 K, 2955 kPa, x2 = 0.0857 | 777.28
342.88 K, 4033 kPa, x2 = 0.0857 | 778.42
342.88 K, 5015 kPa, x2 = 0.0857 | 779.45
342.88 K, 5957 kPa, x2 = 0.0857 | 780.4
342.88 K, 7027 kPa, x2 = 0.0857 | 781.49
342.88 K, 7999 kPa, x2 = 0.0857 | 782.5
342.88 K, 9007 kPa, x2 = 0.0857 | 783.51
342.88 K, 10003 kPa, x2 = 0.0857 | 784.47
342.88 K, 11007 kPa, x2 = 0.0857 | 785.43
342.88 K, 11951 kPa, x2 = 0.0857 | 786.34
342.88 K, 13010 kPa, x2 = 0.0857 | 787.34
342.88 K, 14012 kPa, x2 = 0.0857 | 788.24
342.88 K, 15065 kPa, x2 = 0.0857 | 789.2
342.88 K, 15994 kPa, x2 = 0.0857 | 790.07
342.88 K, 17007 kPa, x2 = 0.0857 | 790.98
342.88 K, 17999 kPa, x2 = 0.0857 | 791.83
342.88 K, 18990 kPa, x2 = 0.0857 | 792.72
342.88 K, 20029 kPa, x2 = 0.0857 | 793.58
342.88 K, 20993 kPa, x2 = 0.0857 | 794.43
342.88 K, 22004 kPa, x2 = 0.0857 | 795.26
342.88 K, 23039 kPa, x2 = 0.0857 | 796.17
342.88 K, 24019 kPa, x2 = 0.0857 | 796.97
342.88 K, 25064 kPa, x2 = 0.0857 | 797.88
342.92 K, 12062 kPa, x2 = 0.4972 | 795.68
342.92 K, 13090 kPa, x2 = 0.4972 | 797.59
342.92 K, 14017 kPa, x2 = 0.4972 | 799.27
342.92 K, 15047 kPa, x2 = 0.4972 | 801.1
342.92 K, 16026 kPa, x2 = 0.4972 | 802.79
342.92 K, 17041 kPa, x2 = 0.4972 | 804.51
342.92 K, 18053 kPa, x2 = 0.4972 | 806.18
342.92 K, 19028 kPa, x2 = 0.4972 | 807.77
342.92 K, 20046 kPa, x2 = 0.4972 | 809.4
342.92 K, 21062 kPa, x2 = 0.4972 | 810.98
342.92 K, 22043 kPa, x2 = 0.4972 | 812.48
342.92 K, 22996 kPa, x2 = 0.4972 | 813.92
342.92 K, 24003 kPa, x2 = 0.4972 | 815.43
342.92 K, 25073 kPa, x2 = 0.4972 | 816.99
342.94 K, 13074 kPa, x2 = 0.5965 | 795.03
342.94 K, 14051 kPa, x2 = 0.5965 | 797.49
342.94 K, 15068 kPa, x2 = 0.5965 | 799.99
342.94 K, 15189 kPa, x2 = 0.8663 | 716.88
342.94 K, 16052 kPa, x2 = 0.8663 | 728.37
342.94 K, 16064 kPa, x2 = 0.5965 | 802.35
342.94 K, 17059 kPa, x2 = 0.8663 | 740.13
342.94 K, 17076 kPa, x2 = 0.5965 | 804.68
342.94 K, 18027 kPa, x2 = 0.8663 | 749.98
342.94 K, 18056 kPa, x2 = 0.5965 | 806.85
342.94 K, 19037 kPa, x2 = 0.5965 | 808.99
342.94 K, 19050 kPa, x2 = 0.8663 | 759.3
342.94 K, 20036 kPa, x2 = 0.8663 | 767.54
342.94 K, 20067 kPa, x2 = 0.5965 | 811.18
342.94 K, 21031 kPa, x2 = 0.5965 | 813.15
342.94 K, 21038 kPa, x2 = 0.8663 | 775.36
342.94 K, 22050 kPa, x2 = 0.5965 | 815.2
342.94 K, 22085 kPa, x2 = 0.8663 | 782.79
342.94 K, 23030 kPa, x2 = 0.5965 | 817.14
342.94 K, 23032 kPa, x2 = 0.8663 | 789.07
342.94 K, 24031 kPa, x2 = 0.5965 | 819.08
342.94 K, 24045 kPa, x2 = 0.8663 | 795.41
342.94 K, 25028 kPa, x2 = 0.5965 | 820.94
342.94 K, 25042 kPa, x2 = 0.8663 | 801.31
343 K, 6024 kPa, x2 = 0.1842 | 782.23
343 K, 7050 kPa, x2 = 0.1842 | 783.43
343 K, 8037 kPa, x2 = 0.1842 | 784.59
343 K, 9052 kPa, x2 = 0.1842 | 785.73
343 K, 10057 kPa, x2 = 0.1842 | 786.87
343 K, 11053 kPa, x2 = 0.1842 | 787.96
343 K, 12027 kPa, x2 = 0.1842 | 789.03
343 K, 13076 kPa, x2 = 0.1842 | 790.12
343 K, 14026 kPa, x2 = 0.1842 | 791.16
343 K, 15081 kPa, x2 = 0.1842 | 792.24
343 K, 16028 kPa, x2 = 0.1842 | 793.21
343 K, 17031 kPa, x2 = 0.1842 | 794.24
343 K, 18020 kPa, x2 = 0.1842 | 795.22
343 K, 19009 kPa, x2 = 0.1842 | 796.2
343 K, 20030 kPa, x2 = 0.1842 | 797.2
343 K, 21066 kPa, x2 = 0.1842 | 798.2
343 K, 21978 kPa, x2 = 0.1842 | 799.07
343 K, 23062 kPa, x2 = 0.1842 | 800.09
343 K, 24031 kPa, x2 = 0.1842 | 801.02
343 K, 25044 kPa, x2 = 0.1842 | 801.97
352.77 K, 1022 kPa, x2 = 0.0251 | 763.98
352.77 K, 2029 kPa, x2 = 0.0251 | 765.11
352.77 K, 3006 kPa, x2 = 0.0251 | 766.15
352.77 K, 4015 kPa, x2 = 0.0251 | 767.17
352.77 K, 5041 kPa, x2 = 0.0251 | 768.25
352.77 K, 5988 kPa, x2 = 0.0251 | 769.24
352.77 K, 7026 kPa, x2 = 0.0251 | 770.25
352.77 K, 8000 kPa, x2 = 0.0251 | 771.2
352.77 K, 9059 kPa, x2 = 0.0251 | 772.24
352.77 K, 10017 kPa, x2 = 0.0251 | 773.14
352.77 K, 11016 kPa, x2 = 0.0251 | 774.17
352.77 K, 12004 kPa, x2 = 0.0251 | 775.04
352.77 K, 13003 kPa, x2 = 0.0251 | 775.95
352.77 K, 14039 kPa, x2 = 0.0251 | 776.91
352.77 K, 14988 kPa, x2 = 0.0251 | 777.75
352.77 K, 16084 kPa, x2 = 0.0251 | 778.74
352.77 K, 17004 kPa, x2 = 0.0251 | 779.54
352.77 K, 18003 kPa, x2 = 0.0251 | 780.41
352.77 K, 19004 kPa, x2 = 0.0251 | 781.28
352.77 K, 20007 kPa, x2 = 0.0251 | 782.15
352.77 K, 21029 kPa, x2 = 0.0251 | 783.01
352.77 K, 22044 kPa, x2 = 0.0251 | 783.86
352.77 K, 22995 kPa, x2 = 0.0251 | 784.65
352.77 K, 24056 kPa, x2 = 0.0251 | 785.52
352.77 K, 25098 kPa, x2 = 0.0251 | 786.41
352.79 K, 18068 kPa, x2 = 0.9698 | 596.97
352.79 K, 18999 kPa, x2 = 0.9698 | 619.03
352.79 K, 20007 kPa, x2 = 0.9698 | 639.88
352.79 K, 21053 kPa, x2 = 0.9698 | 659.01
352.79 K, 22011 kPa, x2 = 0.9698 | 674.59
352.79 K, 23058 kPa, x2 = 0.9698 | 690
352.79 K, 24106 kPa, x2 = 0.9698 | 703.93
352.79 K, 25050 kPa, x2 = 0.9698 | 715.49
352.82 K, 6041 kPa, x2 = 0.1842 | 772.14
352.82 K, 7041 kPa, x2 = 0.1842 | 773.4
352.82 K, 8024 kPa, x2 = 0.1842 | 774.6
352.82 K, 9042 kPa, x2 = 0.1842 | 775.87
352.82 K, 10044 kPa, x2 = 0.1842 | 777.07
352.82 K, 11026 kPa, x2 = 0.1842 | 778.23
352.82 K, 12073 kPa, x2 = 0.1842 | 779.44
